Data taken from ChEMBL document CHEMBL4706517, “Discovery of novel berberine derivatives with balanced cholinesterase and prolyl oligopeptidase inhibition profile” (Eur J Med Chem, 2020).
Active and inactive are the calls of the source. No cut-off for these calls is given here.

What was measured:
Acetylcholinesterase [1] = target: T1, Acetylcholinesterase (Homo sapiens, UniProt P22303); test: Inhibition of recombinant human acetylcholinesterase using acetylthiocholine iodide as substrate preincubated with enzyme for 5 mins followed by substrate addition and measured at 2 mins interval by Ellman's method
CHO-K1 = test: Cytotoxicity against CHO-K1 cells assessed as reduction in cell viability measured after 24 hrs by MTT assay; assay type: cell-based, Cricetulus griseus
[2] = Antioxidant activity assessed as radical scavenging activity measured after 30 mins by microplate reader based DPPH assay; assay type: functional
[3] = Inhibition of HFIP-pretreated Tau (306 to 336) (unknown origin) self-aggregation at 25 uM measured at interval of 10 mins for overnight with 1 min shaking by thioflavin-T fluorescence method; conditions: Homo sapiens
Prolyl endopeptidase = target: T2, Prolyl endopeptidase (Homo sapiens, UniProt P48147)
T2 sequence (P48147 whole entry): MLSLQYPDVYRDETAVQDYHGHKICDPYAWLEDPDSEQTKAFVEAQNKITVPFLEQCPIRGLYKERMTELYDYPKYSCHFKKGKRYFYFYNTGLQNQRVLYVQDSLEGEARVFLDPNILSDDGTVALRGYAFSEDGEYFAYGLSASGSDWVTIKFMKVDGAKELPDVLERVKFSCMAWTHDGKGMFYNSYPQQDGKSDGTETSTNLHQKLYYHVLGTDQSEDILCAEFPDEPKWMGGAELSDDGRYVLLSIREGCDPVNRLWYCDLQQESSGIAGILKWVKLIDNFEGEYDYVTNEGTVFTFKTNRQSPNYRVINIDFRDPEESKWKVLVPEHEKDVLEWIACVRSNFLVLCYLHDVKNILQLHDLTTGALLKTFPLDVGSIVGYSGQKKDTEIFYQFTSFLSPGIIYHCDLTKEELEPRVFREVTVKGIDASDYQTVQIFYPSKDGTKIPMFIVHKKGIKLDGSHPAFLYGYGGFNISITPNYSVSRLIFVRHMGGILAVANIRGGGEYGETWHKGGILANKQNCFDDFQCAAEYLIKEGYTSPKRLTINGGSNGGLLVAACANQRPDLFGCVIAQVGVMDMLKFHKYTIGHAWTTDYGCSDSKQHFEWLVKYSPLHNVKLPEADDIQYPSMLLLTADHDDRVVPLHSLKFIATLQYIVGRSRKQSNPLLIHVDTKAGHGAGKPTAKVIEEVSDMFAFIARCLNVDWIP
Description: Inhibition of recombinant human Prolyl oligopeptidase expressed in Escherichia coli expression system using (Z)-Gly-Pro-p-nitroanilide as substrate preincubated with enzyme for 5 mins followed by substrate addition and measured for 30 mins by spectrophotometric analysis

in vitro = conditions: PAMPA, pH 7.4
Description: Permeability of the compound at pH 7.4 measured after 6 hrs by PAMPA method

[4] = Antioxidant activity assessed as radical scavenging activity incubated for 20 mins by DPPH assay based UV spectrophotometer analysis; assay type: functional
Acetylcholinesterase [5] = target: T1, Acetylcholinesterase; test: Noncompetitive inhibition of human acetylcholinesterase assessed as affinity towards free enzyme using acetylthiocholine iodide as substrate measured by Ellman's method based Lineweaver-Burk plot analysis
Acetylcholinesterase [6] = target: T1, Acetylcholinesterase; test: Noncompetitive inhibition of human acetylcholinesterase assessed as decrease in apparent Vmax with unchanged Km using acetylthiocholine iodide as substrate by Lineweaver-Burk plot analysis
[7] = Cricetulus griseus, CHO-K1, 24 h, read-out: IC50

T1 sequence (P22303 whole entry): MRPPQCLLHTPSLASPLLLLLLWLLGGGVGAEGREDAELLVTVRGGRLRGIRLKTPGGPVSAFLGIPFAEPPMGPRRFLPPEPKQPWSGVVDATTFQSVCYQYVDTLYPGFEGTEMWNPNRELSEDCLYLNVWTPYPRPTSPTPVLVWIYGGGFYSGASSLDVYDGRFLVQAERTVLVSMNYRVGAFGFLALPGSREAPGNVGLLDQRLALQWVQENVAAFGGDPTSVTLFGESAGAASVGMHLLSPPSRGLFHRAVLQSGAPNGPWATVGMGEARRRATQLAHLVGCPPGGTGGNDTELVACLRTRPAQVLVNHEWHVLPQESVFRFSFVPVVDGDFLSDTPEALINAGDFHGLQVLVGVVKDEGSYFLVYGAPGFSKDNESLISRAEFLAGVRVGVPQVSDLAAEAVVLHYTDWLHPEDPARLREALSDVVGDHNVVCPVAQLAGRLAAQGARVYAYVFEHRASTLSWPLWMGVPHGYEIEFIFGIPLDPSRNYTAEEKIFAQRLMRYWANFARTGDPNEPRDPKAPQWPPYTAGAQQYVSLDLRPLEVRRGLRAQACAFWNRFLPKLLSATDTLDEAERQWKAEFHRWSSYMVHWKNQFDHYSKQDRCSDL

Row | SMILES | IC50 (Acetylcholinesterase [1]) [µM] | IC50 (CHO-K1; [7]) [µM] | EC50 [2] [µM] | inhibition [3] [%] | IC50 (Prolyl endopeptidase) [µM] | Papp at 6 h (in vitro) [×10⁻⁶ cm/s] | EC50 [4] [µM] | Ki (Acetylcholinesterase [5]) [µM] | inhibition (Acetylcholinesterase [6]) | IC50 (CHO-K1; cho-k1)
1 | COc1ccc2cc3[n+](cc2c1OCc1ccc2ccccc2c1)CCc1cc2c(cc1-3)OCO2.[Br-] | 1.5 | 14 | > 6000 | 62 | 28.5 | 0.8 |  |  |  | 
2 | COc1ccc2cc3[n+](cc2c1OC)CCc1cc2c(cc1-3)OCO2.[Cl-] [BERBERINE CHLORIDE] |  | 336 | 5500 | 25 |  | 0.2 |  |  |  | 
3 | COc1ccc2cc3[n+](cc2c1OCc1ccc(C(C)C)cc1)CCc1cc2c(cc1-3)OCO2 | 4.2 | 17 | 1300 |  | 53.3 |  |  |  |  | 
4 | CO/N=C(\C(=O)N[C@@H]1C(=O)N2C(C(=O)O)=C(COC(N)=O)CS[C@H]12)c1ccco1 [CEFUROXIME] |  |  |  |  |  | 0.3 |  |  |  | 
5 | COc1ccc2cc3[n+](cc2c1OCc1ccc(Cl)cc1)CCc1cc2c(cc1-3)OCO2 | 2.5 | 13 | 5200 |  | 39.4 |  |  |  |  | 
6 | COc1ccc2cc3[n+](cc2c1O)CCc1cc2c(cc1-3)OCO2 [BERBERRUBINE CHLORIDE] |  |  |  |  |  |  | 87 |  |  | 
7 | C[C@H]1c2cccc(O)c2C(=O)C2=C(O)[C@]3(O)C(=O)C(C(N)=O)=C(O)[C@@H](N(C)C)[C@@H]3[C@@H](O)[C@@H]21 |  |  |  | 39.6 |  |  |  |  |  | 
8 | COc1ccc2cc3[n+](cc2c1OCc1cccc(Br)c1)CCc1cc2c(cc1-3)OCO2 | 2.7 | 32 | 2200 |  | 59.6 |  |  |  |  | 
9 | COc1ccc2cc3[n+](cc2c1OCc1cccc(C)c1)CCc1cc2c(cc1-3)OCO2 | 7.3 | 58 | 1200 |  | 79.1 |  |  |  |  | 
10 | CC(=O)N[C@@H](CS)C(=O)O [ACETYLCYSTEINE] |  |  | 27.9 |  |  |  |  |  |  | 
11 | COc1ccc2cc3[n+](cc2c1OC(C)c1ccccc1)CCc1cc2c(cc1-3)OCO2.[Br-] (configuration not stated) | 0.79 | 42 | 5600 | 38.3 | 29.5 | 0.4 |  |  |  | 
12 | COc1ccc2cc3[n+](cc2c1OCc1ccccc1C)CCc1cc2c(cc1-3)OCO2 | 10.4 | 55 | 1200 |  | 71.1 |  |  |  |  | 
13 | COc1cccc(COc2c(OC)ccc3cc4[n+](cc23)CCc2cc3c(cc2-4)OCO3)c1 | 3.5 | 46 | 5300 |  | 40.4 |  |  |  |  | 
14 | COc1ccc2cc3[n+](cc2c1OCc1cccc(Cl)c1)CCc1cc2c(cc1-3)OCO2 | 1.9 | 30 | 5400 |  | 67 |  |  |  |  | 
15 | COc1ccc2cc3[n+](cc2c1OCc1ccc(C(F)(F)F)cc1)CCc1cc2c(cc1-3)OCO2.[Br-] | 1.3 | 21 | 5300 |  | 27.4 | 0.8 |  | 0.000456 | Active | 
16 | Cc1c(C)c2c(c(C)c1O)CCC(C)(C(=O)O)O2 (configuration not stated) [TROLOX] |  |  | 16.2 |  |  |  |  |  |  | 
17 | COc1ccc(COc2c(OC)ccc3cc4[n+](cc23)CCc2cc3c(cc2-4)OCO3)cc1.[Br-] | 5.3 | 42 | > 6000 |  | 40.5 | 4.8 |  |  |  | 
18 | COc1ccc2cc3[n+](cc2c1OCc1cccc([N+](=O)[O-])c1)CCc1cc2c(cc1-3)OCO2.[Br-] | 1.45 | 30 | 5600 |  | 24.7 | 1.2 |  |  |  | 
19 | COc1ccc2cc3[n+](cc2c1OCc1cc(C)cc(C)c1)CCc1cc2c(cc1-3)OCO2 | 2.5 | 23 | 990 |  | 58.7 |  |  |  |  | 
20 | COc1ccc2cc3[n+](cc2c1OCc1ccccc1Br)CCc1cc2c(cc1-3)OCO2 | 1.7 | 26 | > 6000 |  | 38.9 |  |  |  |  | 
21 | COc1ccc2cc3[n+](cc2c1OCc1ccccc1)CCc1cc2c(cc1-3)OCO2.[Br-] | 5 | 55 | 1900 |  | 25.4 | 0.4 |  |  |  | 
22 | COc1ccc2cc3[n+](cc2c1OCc1ccc(Br)cc1)CCc1cc2c(cc1-3)OCO2.[Br-] | 3.3 | 48 | > 6000 |  | 19.4 | 0.6 |  |  |  | 
23 | COc1ccc2cc3[n+](cc2c1OCc1ccc([N+](=O)[O-])cc1)CCc1cc2c(cc1-3)OCO2.[Br-] | 0.99 |  | 5000 |  | 21.2 | 1.4 |  |  |  | Nd(Insoluble)
24 | Nc1c2c(nc3ccccc13)CCCC2 [TACRINE] |  |  |  |  |  | 6 |  |  |  | 
25 | COc1ccc2cc3[n+](cc2c1OCc1ccc(C)cc1)CCc1cc2c(cc1-3)OCO2.[Br-] | 75.8 | 43 | 1900 | 31.9 | 10.7 | 0.8 |  |  |  | 
26 | COc1ccc2cc3[n+](cc2c1OCc1ccc(SC)cc1)CCc1cc2c(cc1-3)OCO2 | 2.6 | 43 | > 6000 |  | 34 |  |  |  |  | 
27 | COc1ccc2cc3[n+](cc2c1OCc1ccc(Cl)c(Cl)c1)CCc1cc2c(cc1-3)OCO2 | 1.22 | 9 | > 6000 |  | 52.7 |  |  |  |  | 
28 | COc1ccc2cc3[n+](cc2c1OCc1ccc(C#N)cc1)CCc1cc2c(cc1-3)OCO2 | 1.7 | 292 | > 6000 |  | 36.5 |  |  |  |  | 
29 | COC(=O)c1ccc(COc2c(OC)ccc3cc4[n+](cc23)CCc2cc3c(cc2-4)OCO3)cc1 | 2.6 | 50 | 5300 |  | 47.6 |  |  |  |  | 
